The values below come from US9890138B2, “Diaminopyrimidine derivatives and processes for the preparation thereof” (YUHAN CORPORATION, priority 2011, dated 2018).

Structures can show the parent of a compound that is named as a salt.

In this assay the target is T1, human 5-HT4(a) (Homo sapiens, UniProt Q13639).
T1 construct: host or cells: GeneBlAzer HTR4-CRE-bla CHO-K1 cells
T1 sequence (Q13639 1-387 isoform Q13639-2): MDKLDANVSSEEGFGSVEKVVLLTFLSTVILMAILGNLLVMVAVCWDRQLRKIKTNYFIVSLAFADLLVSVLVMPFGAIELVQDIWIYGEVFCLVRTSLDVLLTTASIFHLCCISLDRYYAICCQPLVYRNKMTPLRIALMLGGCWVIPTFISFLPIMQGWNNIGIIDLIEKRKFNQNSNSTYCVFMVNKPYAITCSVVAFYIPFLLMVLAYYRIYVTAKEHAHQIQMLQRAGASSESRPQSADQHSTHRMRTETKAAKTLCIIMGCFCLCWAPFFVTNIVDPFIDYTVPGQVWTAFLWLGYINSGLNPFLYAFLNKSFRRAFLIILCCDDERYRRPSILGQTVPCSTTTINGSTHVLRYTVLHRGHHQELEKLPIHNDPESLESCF
Nature of the assay: Evaluation of agonistic activity in CHO-K1 cells expressing human 5-HT4(a) (GeneBlAzer HTR4-CRE-bla CHO-K1, beta-lactamase reporter). The class given is cell-based. The settings on record: CHO-K1 cells stably expressing human 5-HT4(a). As to the method: Test Example 1: Evaluation of Agonistic Activity in CHO-K1 Cells Expressing Human 5-HT4(a)
As CHO-K1 cells stably expressing human 5-HT4(a), we used the GeneBlAzer HTR4-CRE-bla CHO-K1 cells (Invitrogen Corp.). The cells were cultured, under the condition of 37[…] and 5% CO2, in a DMEM supplemented with 10% fetal bovine serum (FBS), 25 mM HEPES (pH7.4), 600 μg/ml hygromycin B, 0.1 mM non-essential amino acids, 100 unit/ml penicillin and 100 μg/ml streptomycin. Subcultures were performed three times per one week, each being at less than 80% confluence. At the previous day before treating test compounds, the cells were collected using 0.5% trypsin/EDTA and then diluted with a DMEM supplemented with 1% FBS, 25 mM HEPES, and 0.1 mM non-essential amino acids into 3.125×10^5 cells/ml. 32 μl of the diluted cells were added into 384-well plate (10^4 cells per well) and then incubated overnight. After the overnight culture, 8 μl of the medium having 1% of DMSO was added into the cell-free control well and the non-stimulating control well, respectively. 8 μl of the respective test compound dilutions (which had been prepared by diluting by 100-times with the medium as mentioned in the above) having 1% of DMSO were added to the respective remaining wells. After being cultured in the incubator for 5 hours, the wells of the 384-plate were treated with the substrate solution (8 μl per well) prepared according to the vendor's instruction (i.e., Invitrogen's instruction), and then incubated in the dark room for additional two hours. Agonistic activities on 5-HT4 receptor were evaluated, on the basis of fluorescence values of the cleavage-products by beta-lactamase. After exciting to 410 nm of wavelength using a fluorescence detector (Genios Pro), we measured the fluorescence values at two emission wavelengths (first wavelength: 465 nm, second wavelength: 535 nm). Data were analyzed on the basis of the ratio of fluorescence intensities of each well at the respective wavelengths. Each EC50 value was calculated by non-linear regression analysis using the “GraphPad Prism” program, based on the activities according to 8-different concentrations of the test compounds.
The term EC50 denotes the concentration that produces a half-maximal response. Read a low EC50 as higher potency in that assay. Turning to `CCCc1cc(N2CCC(NCC)C2)nc(Nc2ccc(F)cc2)n1` (centres unmarked) [Example 13, 4-[3-(ethylamino)pyrrolidin-1-yl]-N-(4-fluorophenyl)-6-propylpyrimidin-2-amine], the EC50 came out at 0.12 nM.

`CCCc1cc(N2CC[C@H](NC(C)=O)C2)nc(Nc2ccc(F)cc2)n1` [Example 17, (S)-N-{1-[2-(4-fluorophenylamino)-6-propylpyrimidin-4-yl]pyrrolidin-3-yl}acetamide] returned an EC50 of 0.35 nM.

For `CCCc1cc(N2CC[C@H](NCC)C2)nc(Nc2ccc(F)cc2)n1` [Example 18, (S)-4-[3-(ethylamino)pyrrolidin-1-yl]-N-(4-fluorophenyl)-6-propylpyrimidin-2-amine], the EC50 was found to be 0.14 nM.

Take `CCCc1cc(N2CC[C@H](NC)C2)nc(Nc2ccc(F)cc2)n1` [Example 22, (S)-N-(4-fluorophenyl)-4-[3-(methylamino)pyrrolidin-1-yl]-6-propylpyrimidin-2-amine]: the response was half-maximal at 0.33 nM (EC50). This EC50 lies about 2.4-fold higher than the previous one.

`CCCc1cc(N2CCC[C@H]2COC)nc(Nc2ccc(F)c([N+](=O)[O-])c2)n1` [Example 31, (S)-N-(4-fluoro-3-nitrophenyl)-4-[2-(methoxymethyl)pyrrolidin-1-yl]-6-propylpyrimidin-2-amine] yielded an EC50 of 0.13 nM.

The compound `CCCc1cc(N2CCC[C@H]2COC)nc(Nc2cccc([N+](=O)[O-])c2)n1` [Example 32, (S)-4-[2-(methoxymethyl)pyrrolidin-1-yl]-N-(3-nitrophenyl)-6-propylpyrimidin-2-amine] showed an EC50 of 0.23 nM. This EC50 lies about 1.8-fold higher than the previous one.

Turning to `CCCc1cc(N2CCC[C@H]2COC)nc(Nc2ccc(Cl)c([N+](=O)[O-])c2)n1` [Example 33, (S)-N-(4-chloro-3-nitrophenyl)-4-[2-(methoxymethyl)pyrrolidin-1-yl]-6-propyl pyrimidin-2-amine], the EC50 was 0.059 nM.

As to `CCCc1cc(N2CCC[C@H]2COC)nc(Nc2cccc(C#N)c2)n1` [Example 34, (S)-3-{4-[2-(methoxymethyl)pyrrolidin-1-yl]-6-propylpyrimidin-2-ylamino}benzonitrile], the EC50 was found to be 0.16 nM.

For `CCCc1cc(N2CCC[C@H]2COC)nc(Nc2cccc(C(F)(F)F)c2)n1` [Example 36, (S)-4-[2-(methoxymethyl)pyrrolidin-1-yl]-6-propyl-N-[3-(trifluoromethyl)phenyl]pyrimidin-2-amine], the 50% effective concentration (EC50) came out at 0.243 nM.

In turn, `CCCc1cc(N2CCC[C@H]2COC)nc(Nc2ccc(C)c([N+](=O)[O-])c2)n1` [Example 40, (S)-4-[2-(methoxymethyl)pyrrolidin-1-yl]-N-(4-methyl-3-nitrophenyl)-6-propylpyrimidin-2-amine] showed an EC50 of 0.03 nM.

In the case of `CCCc1cc(N2CCC[C@H]2COC)nc(Nc2ccc(F)c(C(F)(F)F)c2)n1` [Example 41, (S)-N-[4-fluoro-3-(trifluoromethyl)phenyl]-4-[2-(methoxymethyl)pyrrolidin-1-yl]-6-propylpyrimidin-2-amine], the EC50 was found to be 0.15 nM.

In turn, `CCCc1cc(N2CCC[C@H]2COC)nc(Nc2ccc(N)c(C(F)(F)F)c2)n1` [Example 42, (S)-N^1-{4-[2-(methoxymethyl)pyrrolidin-1-yl]-6-propylpyrimidin-2-yl}-3-(trifluoromethyl)benzene-1,4-diamine] gave an EC50 of 0.033 nM. This EC50 is about 4.5-fold lower than that of the compound before.

Compound `CCCc1cc(N2CCC[C@H]2COC)nc(Nc2ccc(F)c(C#N)c2)n1` [Example 43, (S)-2-fluoro-5-{4-[2-(methoxymethyl)pyrrolidin-1-yl]-6-propylpyrimidin-2-ylamino}benzonitrile] had an EC50 of 0.178 nM. Against the preceding compound, the EC50 is about 5.4-fold higher.

In turn, `CCCc1cc(N2CCC[C@H]2COC)nc(Nc2ccc(C)c(C#N)c2)n1` [Example 44, (S)-5-{4-[2-(methoxymethyl)pyrrolidin-1-yl]-6-propylpyrimidin-2-ylamino}-2-methylbenzonitrile] yielded an EC50 of 0.022 nM.

As to `CCCc1cc(N2CCC[C@H]2COC)nc(Nc2ccc(N)c(C#N)c2)n1` [Example 45, (S)-2-amino-5-{4-[2-(methoxymethyl)pyrrolidin-1-yl]-6-propylpyrimidin-2-ylamino}benzonitrile], the EC50 came to 0.036 nM.

`CCCc1cc(N2CCC[C@H]2COC)nc(Nc2ccc(N)c([N+](=O)[O-])c2)n1` [Example 46, (S)-N^1-{4-[2-(methoxymethyl)pyrrolidin-1-yl]-6-propylpyrimidin-2-yl}-3-nitrobenzene-1,4-diamine] showed an EC50 of 0.0097 nM.

The compound `CCCc1cc(N2CC[C@H](N)C2)nc(Nc2ccc(F)cc2)n1` [Example 47, (S)-4-(3-aminopyrrolidin-1-yl)-N-(4-fluorophenyl)-6-propylpyrimidin-2-amine dihydrochloride] showed an EC50 of 0.38 nM. This EC50 lies about 39-fold higher than the previous one.

`CCCc1cc(N2CC[C@H](NC)C2)nc(Nc2cccc(C#N)c2)n1` [Example 50, (S)-3-{4-[3-(methylamino)pyrrolidin-1-yl]-6-propylpyrimidin-2-ylamino}benzonitrile] came in with an EC50 of 0.012 nM.

In turn, `CCCc1cc(N2CC[C@H](O)C2)nc(Nc2cccc(C#N)c2)n1` [Example 52, (S)-3-[4-(3-hydroxypyrrolidin-1-yl)-6-propylpyrimidin-2-ylamino]benzonitrile] had an EC50 of 0.33 nM. Compared with the last compound, the EC50 is about 28-fold higher.

`CCCc1cc(N2CCC[C@H]2C)nc(Nc2cccc(C#N)c2)n1` [Example 53, (R)-3-[4-(2-methylpyrrolidin-1-yl)-6-propylpyrimidin-2-ylamino]benzonitrile] yielded an EC50 of 0.098 nM.

Take `CCCc1cc(N2CC[C@H](NC(C)=O)C2)nc(Nc2cccc(C#N)c2)n1` [Example 54, (S)-N-{1-[2-(3-cyanophenylamino)-6-propylpyrimidin-4-yl]pyrrolidin-3-yl}acetamide]: the EC50 was 0.032 nM.

`CCCc1cc(N2CC[C@H](NCC)C2)nc(Nc2cccc(C#N)c2)n1` [Example 55, (S)-3-{4-[3-(ethylamino)pyrrolidin-1-yl]-6-propylpyrimidin-2-ylamino}benzonitrile] displayed an EC50 of 0.016 nM.

Compound `CCCc1cc(N2CC[C@H](CNC(=O)OC(C)(C)C)C2)nc(Nc2cccc(C#N)c2)n1` [Example 56, (R)-tert-butyl{1-[2-(3-cyanophenylamino)-6-propylpyrimidin-4-yl]pyrrolidin-3-yl}methylcarbamate] returned an EC50 of 0.312 nM.

`CCCc1cc(N2CC[C@@H](O)C2)nc(Nc2cccc(C#N)c2)n1` [Example 57, (R)-3-[4-(3-hydroxypyrrolidin-1-yl)-6-propylpyrimidin-2-ylamino]benzonitrile] yielded an EC50 of 0.389 nM.

Regarding `CCCc1cc(N2CCC(NC)C2)nc(Nc2cccc(C#N)c2)n1` (centres unmarked) [Example 59, 3-{4-[3-(methylamino)pyrrolidin-1-yl]-6-propylpyrimidin-2-ylamino}benzonitrile dihydrochloride], the EC50 stood at 0.028 nM.

`CCCc1cc(N2CC[C@H](N)C2)nc(Nc2cccc(C#N)c2)n1` [Example 60, (S)-3-[4-(3-aminopyrrolidin-1-yl)-6-propylpyrimidin-2-ylamino]benzonitrile dihydrochloride] gave an EC50 of 0.047 nM.

`CCCC(=O)N[C@H]1CCN(c2cc(CCC)nc(Nc3cccc(C#N)c3)n2)C1` [Example 61, (S)-N-{1-[2-(3-cyanophenylamino)-6-propylpyrimidin-4-yl]pyrrolidin-3-yl}butyramide] gave an EC50 of 0.15 nM.

In turn, `CCCc1cc(N2CC[C@H](NC(=O)C3CCCC3)C2)nc(Nc2cccc(C#N)c2)n1` [Example 62, (S)-N-{1-[2-(3-cyanophenylamino)-6-propylpyrimidin-4-yl]pyrrolidin-3-yl}cyclopentanecarboxamide] returned an EC50 of 0.36 nM.

On to `CCCc1cc(N2CC[C@H](NC(=O)CCN3CCCCC3)C2)nc(Nc2cccc(C#N)c2)n1` [Example 63, (S)-N-{1-[2-(3-cyanophenylamino)-6-propylpyrimidin-4-yl]pyrrolidin-3-yl}-3-(piperidin-1-yl)propanamide], for which the EC50 turned out to be 0.13 nM.

`CCCc1cc(N2CC[C@H](NC(=O)Cc3ccccc3)C2)nc(Nc2cccc(C#N)c2)n1` [Example 66, (S)-N-{1-[2-(3-cyanophenylamino)-6-propylpyrimidin-4-yl]pyrrolidin-3-yl}-2-phenylacetamide]: the concentration for a half-maximal effect (EC50) is 0.1 nM.

As for `CCCc1cc(N2CC[C@H](NC(=O)Cc3ccc(F)cc3)C2)nc(Nc2cccc(C#N)c2)n1` [Example 67, (S)-N-{1-[2-(3-cyanophenylamino)-6-propylpyrimidin-4-yl]pyrrolidin-3-yl}-2-(4-fluorophenyl)acetamide], the response was half-maximal at 0.19 nM (EC50). This EC50 lies about 1.9-fold higher than the previous one.

The compound `CCCc1cc(N2CC[C@H](NC(=O)CN3CCCCC3)C2)nc(Nc2cccc(C#N)c2)n1` [Example 71, (S)-N-{1-[2-(3-cyanophenylamino)-6-propylpyrimidin-4-yl]pyrrolidin-3-yl}-2-(piperidin-1-yl)acetamide] yielded a half-maximal effective concentration (EC50) of 0.25 nM.
